Here are results for 18 compounds from article PMC3880629 (Journal of medicinal chemistry, 2013).

Read-outs that look alike come from different tables or passages of the source.

In data set [1] the target is T1, CB1 wild-type receptor (Homo sapiens, UniProt P21554). As to conditions: earlier report, given for comparison; cited from earlier work.
Data set [2] concerns the target T1, CB1 wild-type receptor. The conditions noted are these: cited from earlier work; for Effect on CP55,940-induced [35S]GTPγS binding in the presence of allosteric modulator: earlier report, given for comparison.
In data set [3] the target is T1, CB1 wild-type receptor. The format is binding. The conditions noted are these: for α: binding cooperativity factor between CP55,940 and the tested allosteric modulator: HEK293 cell membranes expressing CB1, tracer [3H]CP55,940.
Data set [4] in a line: Solubility in common organic solvents. As to conditions: acetone, ethyl acetate, tetrahydrofuran, dichloromethane, diethyl ether, ethanol and methanol. The format is physicochemical.
For data set [5], the target named is T1, CB1 wild-type receptor. Kind of data set: [35S]GTPγS binding assay. It is filed as biochemical. As to conditions: for Concentration giving complete inhibition of CP55,940-induced [35S]GTPγS binding / Effect on CP55,940-induced [35S]GTPγS binding in the presence of allosteric modulator: HEK293 cell membranes expressing CB1. (In general: Binding of GTPγS marks nucleotide exchange on a G protein.)

T1 sequence (P21554 whole entry): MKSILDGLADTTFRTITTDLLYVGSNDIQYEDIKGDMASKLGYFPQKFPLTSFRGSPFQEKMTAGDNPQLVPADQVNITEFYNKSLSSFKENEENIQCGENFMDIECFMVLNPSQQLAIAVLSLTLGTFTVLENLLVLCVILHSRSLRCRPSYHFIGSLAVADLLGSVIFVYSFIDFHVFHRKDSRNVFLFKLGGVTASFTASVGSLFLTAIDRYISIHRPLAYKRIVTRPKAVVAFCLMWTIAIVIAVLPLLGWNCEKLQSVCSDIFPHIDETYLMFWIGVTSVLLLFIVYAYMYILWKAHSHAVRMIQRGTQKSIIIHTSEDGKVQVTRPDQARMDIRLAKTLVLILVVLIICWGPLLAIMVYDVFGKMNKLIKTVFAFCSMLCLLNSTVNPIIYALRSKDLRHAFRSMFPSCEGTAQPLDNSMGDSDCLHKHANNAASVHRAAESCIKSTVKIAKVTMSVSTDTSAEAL

As for `CCCCCc1c(C(=O)NCCc2ccc(N3CCCCC3)cc2)[nH]c2ccc(Cl)cc12` [11a, 5-Chloro-3-pentyl-N-(4-(piperidin-1-yl)phenethyl)-1H-indole-2-carboxamide], the “α: binding cooperativity factor between CP55,940 and the tested allosteric modulator” value on CB1 wild-type receptor [1] is recorded as 17.6. Besides, on CB1 wild-type receptor [2], the “Concentration at which G protein coupling was inhibited” value was 3.2 µM and the “Effect on CP55,940-induced [35S]GTPγS binding in the presence of allosteric modulator” value (“Effect on CP55,940-induced” below) was “Antagonizing”.
On to `O=C(NCCc1ccc(N2CCCCC2)cc1)c1[nH]c2ccc(Cl)cc2c1-c1ccccc1` [11b, 5-Chloro-3-phenyl-N-(4-(piperidin-1-yl)phenethyl)-1H-indole-2-carboxamide], for which the “α: binding cooperativity factor between CP55,940 and the tested allosteric modulator” value at CB1 wild-type receptor [3] is recorded as 1.0. In addition, the “Solubility in organic solvents” value in data set [4] was “very poor solubility”.
`O=C(NCCc1ccc(N2CCCCC2)cc1)c1[nH]c2ccc(Cl)cc2c1Cc1ccccc1` [11c, 3-Benzyl-5-chloro-N-(4-(piperidin-1-yl)phenethyl)-1H-indole-2-carboxamide]: at CB1 wild-type receptor [3], the “α: binding cooperativity factor between CP55,940 and the tested allosteric modulator” value stood at 11.37. For the same compound, the “Solubility in organic solvents” value in data set [4] is given as “very poor solubility”.
The like results for `O=C(NCCc1ccc(N2CCCCC2)cc1)c1[nH]c2ccc(Cl)cc2c1CC1CCCCC1` [11d, 5-Chloro-3-(cyclohexylmethyl)-N-(4-(piperidin-1-yl)phenethyl)-1H-indole-2-carboxamide] were, in that order, 9.84 and “very poor solubility”.
On to `CCCCCCCc1c(C(=O)NCCc2ccc(N3CCCCC3)cc2)[nH]c2ccc(Cl)cc12` [11e], for which, on CB1 wild-type receptor [3], the “α: binding cooperativity factor between CP55,940 and the tested allosteric modulator” value was found to be 7.38.
As to `CCCCCCCCCc1c(C(=O)NCCc2ccc(N3CCCCC3)cc2)[nH]c2ccc(Cl)cc12` [11f], the “α: binding cooperativity factor between CP55,940 and the tested allosteric modulator” value on CB1 wild-type receptor [3] came out at 6.80. Besides, at CB1 wild-type receptor [5], the “Concentration giving complete inhibition of CP55,940-induced [35S]GTPγS binding” value is on record as “at least 10 μM” and the “Effect on CP55,940-induced” value was “Antagonizing”.
Regarding `CCCCCc1c(C(=O)NCc2ccc(N3CCCCC3)cc2)[nH]c2ccc(Cl)cc12` [11g, 5-Chloro-3-pentyl-N-(4-(piperidin-1-yl)benzyl)-1H-indole-2-carboxamide], the “α: binding cooperativity factor between CP55,940 and the tested allosteric modulator” value on CB1 wild-type receptor [3] stood at 1.0.
Turning to `CCCCCc1c(C(=O)NCCc2ccc(N3CCOCC3)cc2)[nH]c2ccc(Cl)cc12` [11h, 5-Chloro-N-(4-morpholinophenethyl)-3-pentyl-1H-indole-2-carboxamide], at CB1 wild-type receptor [3], the “α: binding cooperativity factor between CP55,940 and the tested allosteric modulator” value was determined as 10.0. In addition, on CB1 wild-type receptor [5], the “Concentration giving complete inhibition of CP55,940-induced [35S]GTPγS binding” value is recorded as “at least 10 μM” and the “Effect on CP55,940-induced” value is given as “Antagonizing”.
As to `CCCCCc1c(C(=O)NCCc2ccc(Oc3ccccc3)cc2)[nH]c2ccc(Cl)cc12` [11i, 5-Chloro-3-pentyl-1H-indole-2-carboxylic acid [2-(4-phenoxy-phenyl)-ethyl]-amide], the “α: binding cooperativity factor between CP55,940 and the tested allosteric modulator” value on CB1 wild-type receptor [3] amounted to 13.15.
Consider `CCCCCc1c(C(=O)NCCc2ccc(N(C)C)cc2)[nH]c2ccc(Cl)cc12` [11j, 5-Chloro-N-(4-(dimethylamino)phenethyl)-3-pentyl-1H-indole-2-carboxamide], for which the “α: binding cooperativity factor between CP55,940 and the tested allosteric modulator” value at CB1 wild-type receptor [3] is on record as 16.55. On CB1 wild-type receptor [5], the “Concentration giving complete inhibition of CP55,940-induced [35S]GTPγS binding” value turned out to be 1 µM and the “Effect on CP55,940-induced” value is listed as “Antagonizing”. Also, at CB1 wild-type receptor [5] (absence of orthosteric ligand, 5 μM GDP), the “Concentration giving complete inhibition of basal [35S]GTPγS binding” value was found to be 10 µM.
Turning to `CCCCCc1c(C(=O)NC(CO)Cc2ccc(N(C)C)cc2)[nH]c2ccc(Cl)cc12` (centres unmarked) [11k, 5-Chloro-N-(1-(4-(dimethylamino)phenyl)-3-hydroxypropan-2-yl)-3-pentyl-1H-indole-2-carboxamide], on CB1 wild-type receptor [3], the “α: binding cooperativity factor between CP55,940 and the tested allosteric modulator” value is on record as 13.27.
The same measure, in the same setting: the result for `CCc1c(C(=O)NCCc2ccc(N(C)C)cc2)[nH]c2ccc(Cl)cc12` [11l, 5-Chloro-N-(4-(dimethylamino)phenethyl)-3-ethyl-1H-indole-2-carboxamide] reads 19.68; that for `O=C(NCCc1ccc(N2CCCCC2)cc1)c1cc2cc(Cl)ccc2o1` [13a, 5-Chloro-N-(4-(piperidin-1-yl)phenethyl)benzofuran-2-carboxamide], 1.0.
As to `CCc1c(C(=O)NCCc2ccc(N3CCCCC3)cc2)oc2ccc(Cl)cc12` [13b, 5-Chloro-3-ethyl-N-(4-(piperidin-1-yl)phenethyl)benzofuran-2-carboxamide], the “α: binding cooperativity factor between CP55,940 and the tested allosteric modulator” value at CB1 wild-type receptor [3] is reported as 18.04. At CB1 wild-type receptor [5], the “Concentration giving complete inhibition of CP55,940-induced [35S]GTPγS binding” value was “at least 10 μM” and the “Effect on CP55,940-induced” value is on record as “Antagonizing”.
Take `CCc1c(C(=O)NCCc2ccc(N(C)C)cc2)oc2ccc(Cl)cc12` [13c, 5-Chloro-N-(4-(dimethylamino)phenethyl)-3-ethylbenzofuran-2-carboxamide]: at CB1 wild-type receptor [3] (13c versus 11l), the “Fold increase in KB on replacing the indole ring with a benzofuran ring” value was 3 fold. Moreover, on CB1 wild-type receptor [3], the “α: binding cooperativity factor between CP55,940 and the tested allosteric modulator” value is listed as 11.59.
As for `CN(C)c1ccc(CCNC(=O)c2cc3cc(Cl)ccc3o2)cc1` [13d, 5-Chloro-N-(4-(dimethylamino)phenethyl)benzofuran-2-carboxamide], the “α: binding cooperativity factor between CP55,940 and the tested allosteric modulator” value at CB1 wild-type receptor [3] is reported as 1.0.
Take `CCCCCCC(C)(C)c1ccc([C@@H]2C[C@H](O)CC[C@H]2CCCO)c(O)c1` [CP55,940, 2-[(1R,2R,5R)-5-hydroxy-2-(3-hydroxypropyl)cyclohexyl]-5-(2-methyloctan-2-yl)phenol, reference compound]: the “Emax of CP55,940-induced [35S]GTPγS binding” value on CB1 wild-type receptor [5] (in the absence of allosteric modulator (11j), mean ± S.E.) is given as 113.0 ± 2.6 fmol/mg.
For `CCc1c(C(=O)NCCc2ccc(N3CCCCC3)cc2)[nH]c2ccc(Cl)cc12` [compound 1, 5-chloro-3-ethyl-N-(4-(piperidin-1-yl)phenethyl)-1H-indole-2-carboxamide, reference compound], the “α: binding cooperativity factor between CP55,940 and the tested allosteric modulator” value at CB1 wild-type receptor [1] is 6.95. At CB1 wild-type receptor [2], the “Concentration at which G protein coupling was inhibited” value is 3.2 µM and the “Effect on CP55,940-induced” value is reported as “Antagonizing”.
